For orientation: IC50 means the concentration at which inhibition is half-maximal. A high value points to a need for much substance.

The target of test [1] is Splicing factor 3B subunit 1 / PHD finger-like domain-containing protein 5A (Homo sapiens, UniProt O75533+Q7RTV0). Kind of test: (§1) Inhibition of SAP130 in VEGF-stimulated human U251 cells by PLAP reporter gene assay. It counts as cell-based, U-251. To be noted: u-251.
For test [2], the target named is T1, Splicing factor 3B subunit 3 (Homo sapiens) (UniProt Q15393).
T1 sequence (whole entry): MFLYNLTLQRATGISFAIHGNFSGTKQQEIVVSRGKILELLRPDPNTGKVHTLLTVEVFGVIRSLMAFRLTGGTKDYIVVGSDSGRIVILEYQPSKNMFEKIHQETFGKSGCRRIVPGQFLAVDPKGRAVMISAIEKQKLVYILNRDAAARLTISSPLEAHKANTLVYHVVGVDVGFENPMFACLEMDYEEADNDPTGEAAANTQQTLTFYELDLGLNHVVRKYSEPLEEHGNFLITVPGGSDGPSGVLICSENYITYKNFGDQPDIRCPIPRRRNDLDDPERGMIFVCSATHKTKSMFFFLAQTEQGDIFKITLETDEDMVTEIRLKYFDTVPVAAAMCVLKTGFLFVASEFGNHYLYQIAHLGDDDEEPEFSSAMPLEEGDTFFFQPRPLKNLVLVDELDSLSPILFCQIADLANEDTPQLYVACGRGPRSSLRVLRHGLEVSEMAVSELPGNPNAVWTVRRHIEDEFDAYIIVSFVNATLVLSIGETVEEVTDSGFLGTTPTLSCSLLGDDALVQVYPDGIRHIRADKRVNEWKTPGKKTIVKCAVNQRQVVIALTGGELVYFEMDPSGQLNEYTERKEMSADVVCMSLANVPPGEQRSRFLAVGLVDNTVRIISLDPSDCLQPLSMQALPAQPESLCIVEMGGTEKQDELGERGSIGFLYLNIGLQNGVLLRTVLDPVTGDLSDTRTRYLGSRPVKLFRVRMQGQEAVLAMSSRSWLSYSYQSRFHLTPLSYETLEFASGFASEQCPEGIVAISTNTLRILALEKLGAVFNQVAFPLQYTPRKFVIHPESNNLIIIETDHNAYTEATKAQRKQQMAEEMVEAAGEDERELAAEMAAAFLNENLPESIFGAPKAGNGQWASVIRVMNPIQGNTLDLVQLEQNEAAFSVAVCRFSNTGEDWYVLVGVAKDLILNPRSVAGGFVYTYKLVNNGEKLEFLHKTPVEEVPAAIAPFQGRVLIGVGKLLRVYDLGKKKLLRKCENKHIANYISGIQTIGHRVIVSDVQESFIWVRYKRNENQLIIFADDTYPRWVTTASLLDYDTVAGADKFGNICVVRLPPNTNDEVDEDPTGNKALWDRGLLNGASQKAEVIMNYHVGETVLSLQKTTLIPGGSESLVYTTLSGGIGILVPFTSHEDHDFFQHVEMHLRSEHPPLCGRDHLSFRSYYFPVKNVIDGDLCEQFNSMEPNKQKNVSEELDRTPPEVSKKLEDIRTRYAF
The test is described as follows: Displacement of [3H]probe from SAP130 in human WiDr cell immunoprecipitate sample assessed as radioactive intensity at 10 uM after 1 hr by scintillation counting.

Test [3] has as its target T2, Splicing factor 3B subunit 3 (Homo sapiens, UniProt Q15393).
T2 sequence (Q15393 whole entry): T1 sequence (whole entry)
Described as §1. It counts as cell-based, U-251.

Where only a bound is given, the exact number is not on record here.

Chain of Splicing factor 3B subunit 1 / PHD finger-like domain-containing protein 5A (O75533 whole entry, the tested form may be a part): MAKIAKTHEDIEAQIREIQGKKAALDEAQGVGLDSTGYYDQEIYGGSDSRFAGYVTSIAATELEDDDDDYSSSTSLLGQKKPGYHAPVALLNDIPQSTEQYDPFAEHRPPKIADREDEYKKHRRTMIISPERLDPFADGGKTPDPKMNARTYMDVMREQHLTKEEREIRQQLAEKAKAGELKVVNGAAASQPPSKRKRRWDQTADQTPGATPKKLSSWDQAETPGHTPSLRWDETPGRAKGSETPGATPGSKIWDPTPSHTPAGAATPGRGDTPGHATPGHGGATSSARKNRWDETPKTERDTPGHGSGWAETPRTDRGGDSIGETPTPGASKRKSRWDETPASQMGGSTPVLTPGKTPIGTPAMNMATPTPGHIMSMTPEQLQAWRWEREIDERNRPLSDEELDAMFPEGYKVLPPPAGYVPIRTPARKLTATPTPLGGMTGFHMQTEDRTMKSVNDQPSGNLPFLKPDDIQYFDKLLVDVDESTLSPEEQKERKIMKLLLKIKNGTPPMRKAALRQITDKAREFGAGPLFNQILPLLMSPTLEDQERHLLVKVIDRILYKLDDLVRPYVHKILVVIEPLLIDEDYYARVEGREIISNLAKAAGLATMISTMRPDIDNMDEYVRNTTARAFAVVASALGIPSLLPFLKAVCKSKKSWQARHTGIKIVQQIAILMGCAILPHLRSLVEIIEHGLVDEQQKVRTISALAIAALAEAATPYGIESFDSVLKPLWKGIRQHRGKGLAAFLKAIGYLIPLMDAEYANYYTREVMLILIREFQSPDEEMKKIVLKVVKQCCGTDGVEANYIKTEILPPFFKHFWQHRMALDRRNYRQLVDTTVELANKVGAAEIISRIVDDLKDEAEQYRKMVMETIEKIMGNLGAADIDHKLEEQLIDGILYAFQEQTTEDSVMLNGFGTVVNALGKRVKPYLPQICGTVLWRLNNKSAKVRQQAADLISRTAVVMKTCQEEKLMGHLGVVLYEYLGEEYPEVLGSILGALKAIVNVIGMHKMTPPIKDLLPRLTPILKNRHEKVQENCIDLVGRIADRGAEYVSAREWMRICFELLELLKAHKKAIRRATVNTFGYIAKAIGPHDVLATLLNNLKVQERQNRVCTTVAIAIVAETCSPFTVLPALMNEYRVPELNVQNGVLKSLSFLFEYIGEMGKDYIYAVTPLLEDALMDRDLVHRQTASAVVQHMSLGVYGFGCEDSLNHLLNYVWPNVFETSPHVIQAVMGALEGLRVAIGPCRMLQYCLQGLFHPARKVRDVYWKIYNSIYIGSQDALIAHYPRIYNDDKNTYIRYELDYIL
Chain of Splicing factor 3B subunit 1 / PHD finger-like domain-containing protein 5A (Q7RTV0 2-110 limits assumed): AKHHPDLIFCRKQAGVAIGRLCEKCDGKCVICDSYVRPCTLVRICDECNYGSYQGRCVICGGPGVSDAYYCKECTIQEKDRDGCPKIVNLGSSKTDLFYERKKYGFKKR

In test [1], `C=CC[C@@H]1/C=C(\C)C[C@H](C)C[C@H](OC)[C@H]2O[C@@](O)(C(=O)C(=O)N3CCCC[C@H]3C(=O)O[C@H](/C(C)=C/[C@@H]3CC[C@@H](O)[C@H](OC)C3)[C@H](C)[C@@H](O)CC1=O)[C@H](C)C[C@@H]2OC` [TACROLIMUS ANHYDROUS] displayed an IC50 of 13.8 nM.
For `CC(=O)N[C@@H](CSC(=O)[C@]1([C@@H](O)C(C)C)NC(=O)[C@H](C)[C@@H]1O)C(=O)O` [LACTACYSTIN], the Activity in test [2] was below 50%. This compound yielded an IC50 in test [1] of 3480 nM.
`CC(/C=C/C(=O)NO)=C\[C@@H](C)C(=O)c1ccc(N(C)C)cc1` [TRICHOSTATIN]: half-maximal inhibition in test [3] (IC50) was put at 611 nM.

The values above are taken from ChEMBL document CHEMBL1240330, “Splicing factor SF3b as a target of the antitumor natural product pladienolide” (Nat Chem Biol, 2007).
